Blank lines part the entries; values can stand above or below the molecule they belong to.
Assay: solvent given as SMILES

fluorescence lifetime (in ClCCl): 6.16 ns
Structure (SMILES): CCCCCCCCCCCCN1C(=O)c2c(c3ccc4cc(-c5ccccc5)c(OC)cc4c3c3c2ccc2cc(-c4ccccc4)c(OC)cc23)C1=O

fluorescence lifetime (in ClC(Cl)Cl): 2.6 ns
Structure (SMILES): COc1cc(OC)c2cc(-c3cccc(-c4cc5c(OC)cc(OC)cc5oc4=O)c3)c(=O)oc2c1

fluorescence lifetime (in C1CCCCC1): 2.07 ns | fluorescence lifetime (in CCOC(C)=O): 0.52 ns
Structure (SMILES): CC1=[N+]2C(=C(NC(C)c3ccccc3)c3ccc(C)n3[B-]2(F)F)C=C1c1cc2n(c1)[B-](F)(F)[N+]1=CC=CC1=C2c1c(C)cc(C)cc1C (stereo not given)

fluorescence lifetime (in ClCCl): 2.68 ns
Structure (SMILES): c1ccc(N(c2ccccc2)c2ccc(-c3ccc(-c4cc(-c5ccccn5)nc(-c5ccccn5)c4)cc3)cc2)cc1

fluorescence lifetime (in ClCCl): 1.77 ns
Structure (SMILES): Fc1ccc(-c2ccc(-c3cc(-c4ccccn4)nc(-c4ccccn4)c3)cc2)c(F)c1

fluorescence lifetime (in CCCCCCC): 108 ns
Structure (SMILES): CC(=O)Nc1cc2ccc3cccc4ccc(c1)c2c34

fluorescence lifetime (in C1CCCCC1): 4.1 ns | fluorescence lifetime (in CCOC(C)=O): 4.22 ns | fluorescence lifetime (in CO): 4.14 ns
Structure (SMILES): COc1ccc(C2=C3C=c4c(oc5ccccc45)=[N+]3[B-](F)(F)n3c2cc2c4ccccc4oc23)cc1

fluorescence lifetime (in CCOC(C)=O): 3.5 ns | fluorescence lifetime (in CS(C)=O): 4 ns
Structure (SMILES): COc1nc(Nc2ccc3c4cccc5cccc(c6cccc2c63)c54)nc(OC)n1

fluorescence lifetime (in CCO): 1.3 ns | fluorescence lifetime (in ClCCl): 1.6 ns
Structure (SMILES): N#Cc1cnc(-c2c3ccccc3cc3ccccc23)nc1

fluorescence lifetime (in ClCCl): 6.21 ns
Structure (SMILES): CCc1c(C)[nH]c(C2=[N+]3C(=C(C)c4c(C)c(CC)c(C)n4[B-]3(F)F)c3ccccc32)c1C

The remaining lines, values behind:

Structure (SMILES): CCCCCCCCCC[n+]1cc2ccc3c[n+](CCCCCCCCCC)cc4ccc(c1)c2c34
fluorescence lifetime (in CC#N): 9.5 ns

Structure (SMILES): CN(c1ccccc1)c1ccc(N(c2ccccc2)c2ccc3ccc4c(N(c5ccccc5)c5ccc(N(C)c6ccccc6)cc5)ccc5ccc2c3c54)cc1
fluorescence lifetime (in ClCCl): 1.1 ns

Structure (SMILES): CC1(C)CC(/N=C/c2ccc3ccc4cccc5ccc2c3c45)CC(C)(C)N1[O]
fluorescence lifetime (in C1CCCCC1): 8.3 ns | fluorescence lifetime (in CO): 2.1 ns

Structure (SMILES): CC(=O)c1ccc(-c2cc(C)[o+]c(C)c2)cc1
fluorescence lifetime (in ClCCl): 2 ns

Structure (SMILES): c1ccc(-c2nc(-c3ccccc3)nc(-c3cc(-n4c5ccccc5c5ccccc54)c(-n4c5ccccc5c5ncccc54)c(-n4c5ccccc5c5ccccc54)c3)n2)cc1
fluorescence lifetime (in O=P(c1ccccc1)(c1ccccc1)c1ccc2oc3ccc(P(=O)(c4ccccc4)c4ccccc4)cc3c2c1): 20.4 ns

Structure (SMILES): COc1ccc(-c2nc3ccccc3oc2=O)cc1
fluorescence lifetime (in c1ccccc1): 2.5 ns

Structure (SMILES): N#Cc1c(-n2c3ccccc3c3ccccc32)c(-n2c3ccccc3c3ccccc32)c(C#N)c(-n2c3ccccc3c3ccccc32)c1-n1c2ccccc2c2ccccc21
fluorescence lifetime (in Cc1ccccc1): 8.8 ns

Structure (SMILES): O=[N+]([O-])c1ccc(/C2=C3N=C(C(c4ccccc4)=C/3c3ccccc3)/C(c3ccc([N+](=O)[O-])cc3)=c3\[nH]/c(c(-c4ccccc4)c3-c3ccccc3)=C(/c3ccc([N+](=O)[O-])cc3)C3=N/C(=C(/c4ccc([N+](=O)[O-])cc4)c4[nH]c2c(-c2ccccc2)c4-c2ccccc2)C(c2ccccc2)=C3c2ccccc2)cc1
fluorescence lifetime (in ClCCl): 0.395 ns

Structure (SMILES): CSC1=C2C=C(c3cc4n(c3)[B-](F)(F)[N+]3=CC=CC3=C4c3c(C)cc(C)cc3C)C(C)=[N+]2[B-](F)(F)n2c(C)ccc21
fluorescence lifetime (in C1CCCCC1): 2.67 ns | fluorescence lifetime (in CC#N): 0.17 ns | fluorescence lifetime (in CC(C)=O): 0.39 ns | fluorescence lifetime (in CCOC(C)=O): 0.97 ns | fluorescence lifetime (in Cc1ccccc1): 1.81 ns

Structure (SMILES): O=C1c2ccc(-c3ccc(N(c4ccccc4)c4ccccc4)cc3)cc2C(=O)c2ccc(-c3ccc(N(c4ccccc4)c4ccccc4)cc3)cc21
fluorescence lifetime (in Cc1ccccc1): 9 ns | fluorescence lifetime (in c1ccc2c(c1)c1ccccc1n2-c1ccc(-c2ccc(-n3c4ccccc4c4ccccc43)cc2)cc1): 10.2 ns

Structure (SMILES): C[Si](C)(C)c1ccc2ccc3cccc4ccc1c2c34
fluorescence lifetime (in CCCCCC): 66.9 ns | fluorescence lifetime (in CO): 175 ns | fluorescence lifetime (in ClCCl): 94.2 ns

Structure (SMILES): CCC(=O)c1ccc2cc(N(C)C)ccc2c1
fluorescence lifetime (in C1CCCCC1): 1.6 ns | fluorescence lifetime (in C1CCOC1): 3.58 ns | fluorescence lifetime (in CC#N): 3.96 ns | fluorescence lifetime (in CCCCCC): 0.29 ns | fluorescence lifetime (in CCO): 3.65 ns | fluorescence lifetime (in CN(C)C=O): 3.85 ns | fluorescence lifetime (in CO): 3.04 ns | fluorescence lifetime (in CS(C)=O): 3.12 ns | fluorescence lifetime (in Cc1ccccc1): 2.33 ns | fluorescence lifetime (in ClC(Cl)Cl): 3.09 ns | fluorescence lifetime (in ClCCl): 3.44 ns | fluorescence lifetime (in O): 2.1 ns | fluorescence lifetime (in OCC(O)CO): 3.8 ns | fluorescence lifetime (in c1ccccc1): 3.3 ns

Structure (SMILES): O=C(O)CCCCCn1c2ccc(Br)cc2c(=O)c2cc(Br)ccc21
fluorescence lifetime (in O): 6 ns

Structure (SMILES): CCOC(=O)c1csc2[n+]1[B-](F)(F)OC(c1ccc(N(C)C)cc1)=N2
fluorescence lifetime (in C1CCOC1): 2.1 ns
